Measured values from patent US11318113B2, “Compounds for the treatment of diseases linked to mitochondrial reactive oxygen species (ROS) production” (OP2 DRUGS, priority 2015, dated 2022).

Assays:
[1] = test system: isolated pancreatic islets from mice; experiment: Glucose-stimulated insulin secretion (GSIS) in isolated pancreatic islets; assay type: cell-based, mouse; details: AOL 10 and 20 μM, 1 hour
Description: Pancreatic islets were isolated using the collagenase digestion method. Briefly, pancreas was inflated with Hanks solution containing 0.33 mg/mL of collagenase (Sigma-Aldrich), 5.6 mM glucose and 1% bovine serum albumin, pH 7.35, removed and kept at 37° C. for 6-9 minutes. After tissue digestion and exocrine removal by three consecutive washes, the islets were manually collected, under a binocular magnifier. Islets were left recovering from digestion by culturing for 20-24 hours in RPMI-1640 medium containing 11 mM glucose (Invitrogen, Calif., USA) and supplemented with 2 mM glutamine, 200 IU/mL penicillin, 200 μg/mL streptomycin and 8% fetal bovine serum stripped with charcoal-dextran (Invitrogen).
For each static GSIS experiment, islets from two mice were first incubated for 2 hours at 37° C. in 3 mL Krebs-bicarbonate buffer solution (in mM): […], 2 HEPES and 3 glucose, equilibrated with a mixture of 95% O2:5% CO2, pH 7.4. […] Insulin secretion in each well was calculated as ng of insulin per islet and per hour of incubation, and then expressed as percentage of insulin secretion in 11 mM glucose vehicle group, which was considered 100%.

[2] = test system: site IQ of complex I of the mitochondrial respiratory chain; experiment: Mitochondrial ROS/H2O2 production (Amplex Red/HRP), no complex inhibitor, ATR only; assay type: biochemical, rat; details: glutamate+malate+succinate, ATR (state 4); AOL 5 to 80 μM
Description: Rates of ROS/H2O2 production from heart mitochondria were assessed through the oxidation of the colorless, non-fluorescent indicator Amplex Red in the presence of exogenous horseradish peroxidase (HRP, EC 1.11.1.7, Sigma). H2O2 reacts with Amplex Red in a 1:1 stoichiometry, yielding the fluorescent compound resorufin (excitation: 560 nm; emission: 585 nm) which is stable once formed. Fluorescence was measured continuously with a spectro-fluorometer equipped with temperature control and stirring (SAFAS Xenius, Monaco). Isolated mitochondria (0.1 mg/mL) were incubated in the same experimental buffer than previously, supplemented with 15 μM Amplex Red and 10 μg/mL HRP. Glutamate (5 mM)/malate (2.5 mM) together with succinate (5 mM) were used as complex I and complex II substrates, respectively. Experiments were conducted under non-phosphorylating conditions in the presence of 15 μM atractyloside, i.e. under state IV conditions where mitochondrial membrane […]. […]
FIG. 3 illustrates the effect of the presence of increasing concentrations of AOL (from 5 to 80 μM) on ROS/H2O2 production measured under the different conditions defined in FIG. 2. […]

## COc1ccc(-c2cc(=S)ss2)cc1 [AOL, 5-(4-methoxyphenyl)-3H-1,2-dithiole-3-thione]
[1]
  GSIS increase as compared to the 11 mM glucose vehicle group: 65-75%
[2]
  decrease of ROS/H2O2 production measured in the absence of inhibitor: approximately 80%
